Converted amounts (≈) assume the structure as drawn.
What was measured:
Candida parapsilosis = assay: Minimum inhibitory concentration against Candida B66126 parapsilosis by microdilution method; type: functional; settings: Lodderomyces parapsilosis
Aspergillus fumigatus = assay: Minimum inhibitory concentration against Aspergillus fumigatus B42928 by microdilution method; type: functional
Cryptococcus neoformans = assay: Minimum inhibitory concentration against Cryptococcus neoformans B66663 by microdilution method; type: functional
[1] = Minimum inhibitory concentration against Trichophyton mentagrophytes B70554 by microdilution method; type: functional; settings: Trichophyton benhamiae
[2] = Minimum inhibitory concentration against Sporothrix schenckii B64284 by microdilution method; type: functional
[3] = Minimum inhibitory concentration against Trichophyton rubrum B68183 by microdilution method; type: functional
[4] = Minimum inhibitory concentration against Microsporum canis B68128 by microdilution method; type: functional
[5] = Bioavailability in plasma of Microsporum canis infected guinea pig after […] administration of 2 mg/kg dose; type: ADME, organism-based, Cavia porcellus; settings: read-out: Activity

Row | Structure (SMILES) | MIC (Candida parapsilosis) [µM] | MIC (Aspergillus fumigatus) [µM] | MIC (Cryptococcus neoformans) [µM] | MIC [1] [µM] | MIC [2] | MIC [3] [µM] | MIC [4] [µM] | bioavailability [5] [%]
1 | CCc1ccc(C2NCc3c(F)cccc3-n3cccc32)cc1 (centres undefined) | 10 (≈ 3.06 µg/mL) | 10 (≈ 3.06 µg/mL) | 100 (≈ 30.6 µg/mL) | 1 (≈ 0.306 µg/mL) | 100 µM (≈ 30.6 µg/mL) | 0.32 (≈ 0.098 µg/mL) | 3.2 (≈ 0.98 µg/mL) | 
2 | CCc1ccc(C2NCc3c(Cl)cccc3-n3cccc32)cc1 (centres undefined) | 1 (≈ 0.323 µg/mL) | 3.2 (≈ 1.03 µg/mL) | 100 (≈ 32.3 µg/mL) | 0.1 (≈ 0.0323 µg/mL) | 100 µM (≈ 32.3 µg/mL) | 0.03 (≈ 0.00969 µg/mL) | 0.32 (≈ 0.103 µg/mL) | 
3 | CCc1ccc(C2=NCc3ccc(Cl)cc3-n3cccc32)cc1 | 1 (≈ 0.321 µg/mL) | 0.32 (≈ 0.103 µg/mL) | 1 (≈ 0.321 µg/mL) | 0.1 (≈ 0.0321 µg/mL) | 6.6 µM (≈ 2.12 µg/mL) | 0.065 (≈ 0.0209 µg/mL) | 0.32 (≈ 0.103 µg/mL) | 
4 | CCc1ccc([C@H]2NCc3c(Cl)cccc3-n3cccc32)cc1 | 0.32 (≈ 0.103 µg/mL) | 1 (≈ 0.323 µg/mL) | 100 (≈ 32.3 µg/mL) | 0.01 (≈ 0.00323 µg/mL) | 100 µM (≈ 32.3 µg/mL) | 0.03 (≈ 0.00969 µg/mL) | 0.32 (≈ 0.103 µg/mL) | < 5
5 | CCc1ccc(C2NCc3c(C)cccc3-n3cccc32)cc1 (centres undefined) | 55 (≈ 16.6 µg/mL) | 100 (≈ 30.2 µg/mL) | 100 (≈ 30.2 µg/mL) | 1 (≈ 0.302 µg/mL) | 100 µM (≈ 30.2 µg/mL) | 0.21 (≈ 0.0635 µg/mL) | 2.1 (≈ 0.635 µg/mL) | 
6 | Cc1ccc(C2NCc3c(Cl)cccc3-n3cccc32)cc1 (centres undefined) | 100 (≈ 30.9 µg/mL) | 100 (≈ 30.9 µg/mL) | 100 (≈ 30.9 µg/mL) | 2.1 (≈ 0.649 µg/mL) | 100 µM (≈ 30.9 µg/mL) | 0.1 (≈ 0.0309 µg/mL) | 2.1 (≈ 0.649 µg/mL) | 
7 | CCc1ccc(C2c3cccn3-c3cccc(Cl)c3CN2C)cc1 (centres undefined) | 100 (≈ 33.7 µg/mL) | 100 (≈ 33.7 µg/mL) | 100 (≈ 33.7 µg/mL) | 55 (≈ 18.5 µg/mL) | 100 µM (≈ 33.7 µg/mL) | 51.6 (≈ 17.4 µg/mL) | 100 (≈ 33.7 µg/mL) | 
8 | Clc1cccc2c1CNC(c1ccccc1)c1cccn1-2 (centres undefined) | 100 (≈ 29.5 µg/mL) | 100 (≈ 29.5 µg/mL) | 100 (≈ 29.5 µg/mL) | 100 (≈ 29.5 µg/mL) | 100 µM (≈ 29.5 µg/mL) | 0.32 (≈ 0.0943 µg/mL) | 100 (≈ 29.5 µg/mL) | 
9 | CCc1ccc(C2NCc3cccc(Cl)c3-n3cccc32)cc1 (centres undefined) | 100 (≈ 32.3 µg/mL) | 100 (≈ 32.3 µg/mL) | 100 (≈ 32.3 µg/mL) | 3.2 (≈ 1.03 µg/mL) | 100 µM (≈ 32.3 µg/mL) | 1 (≈ 0.323 µg/mL) | 3.2 (≈ 1.03 µg/mL) | 
10 | CCc1ccccc1C1NCc2c(Cl)cccc2-n2cccc21 (centres undefined) | 100 (≈ 32.3 µg/mL) | 100 (≈ 32.3 µg/mL) | 100 (≈ 32.3 µg/mL) | 100 (≈ 32.3 µg/mL) | 100 µM (≈ 32.3 µg/mL) | 10 (≈ 3.23 µg/mL) | 100 (≈ 32.3 µg/mL) | 
11 | CC(C)(C)c1ccc(C2NCc3c(Cl)cccc3-n3cccc32)cc1 (centres undefined) | 55 (≈ 19.3 µg/mL) | 100 (≈ 35.1 µg/mL) | 100 (≈ 35.1 µg/mL) | 1 (≈ 0.351 µg/mL) | 55 µM (≈ 19.3 µg/mL) | 1 (≈ 0.351 µg/mL) | 0.66 (≈ 0.232 µg/mL) | 
12 | CCc1ccc(C2NCc3c(OC)cccc3-n3cccc32)cc1 (centres undefined) | 100 (≈ 31.8 µg/mL) | 100 (≈ 31.8 µg/mL) | 100 (≈ 31.8 µg/mL) | 10 (≈ 3.18 µg/mL) | 100 µM (≈ 31.8 µg/mL) | 3.2 (≈ 1.02 µg/mL) | 10 (≈ 3.18 µg/mL) | 
13 | CCc1ccc(C2=NCc3ccccc3-n3cccc32)cc1 | 0.32 (≈ 0.0916 µg/mL) | 1 (≈ 0.286 µg/mL) | 100 (≈ 28.6 µg/mL) | 0.32 (≈ 0.0916 µg/mL) | 100 µM (≈ 28.6 µg/mL) | 0.065 (≈ 0.0186 µg/mL) | 0.32 (≈ 0.0916 µg/mL) | 
14 | CCc1ccc(C2NCc3ccc(Cl)cc3-n3cccc32)cc1 (centres undefined) | 100 (≈ 32.3 µg/mL) | 100 (≈ 32.3 µg/mL) | 100 (≈ 32.3 µg/mL) | 1 (≈ 0.323 µg/mL) | 100 µM (≈ 32.3 µg/mL) | 0.1 (≈ 0.0323 µg/mL) | 1 (≈ 0.323 µg/mL) | 
15 | CCc1ccc([C@@H]2NCc3c(Cl)cccc3-n3cccc32)cc1 | 100 (≈ 32.3 µg/mL) | 55 (≈ 17.8 µg/mL) | 100 (≈ 32.3 µg/mL) | 1 (≈ 0.323 µg/mL) | 100 µM (≈ 32.3 µg/mL) | 0.32 (≈ 0.103 µg/mL) | 0.32 (≈ 0.103 µg/mL) | 
16 | Clc1cccc2c1CNC(c1ccc(Br)cc1)c1cccn1-2 (centres undefined) | 100 (≈ 37.4 µg/mL) | 10 (≈ 3.74 µg/mL) | 100 (≈ 37.4 µg/mL) | 0.21 (≈ 0.0785 µg/mL) | 100 µM (≈ 37.4 µg/mL) | 0.21 (≈ 0.0785 µg/mL) | 0.32 (≈ 0.12 µg/mL) | 
17 | CCc1ccc(C2NCc3c(SC)cccc3-n3cccc32)cc1 (centres undefined) | 100 (≈ 33.4 µg/mL) | 100 (≈ 33.4 µg/mL) | 100 (≈ 33.4 µg/mL) | 3.2 (≈ 1.07 µg/mL) | 100 µM (≈ 33.4 µg/mL) | 0.32 (≈ 0.107 µg/mL) | 3.2 (≈ 1.07 µg/mL) | 
18 | CCCc1ccc(C2NCc3c(Cl)cccc3-n3cccc32)cc1 (centres undefined) | 6.6 (≈ 2.22 µg/mL) | 100 (≈ 33.7 µg/mL) | 100 (≈ 33.7 µg/mL) | 0.66 (≈ 0.222 µg/mL) | 100 µM (≈ 33.7 µg/mL) | 0.32 (≈ 0.108 µg/mL) | 0.66 (≈ 0.222 µg/mL) | 
19 | CCc1ccc(C2NCc3cc(Cl)ccc3-n3cccc32)cc1 (centres undefined) | 100 (≈ 32.3 µg/mL) | 100 (≈ 32.3 µg/mL) | 100 (≈ 32.3 µg/mL) | 51.6 (≈ 16.7 µg/mL) | 100 | 3.2 (≈ 1.03 µg/mL) | 100 (≈ 32.3 µg/mL) | 
20 | CCc1ccc(C2NCc3ccccc3-n3cccc32)cc1 (centres undefined) | 100 (≈ 28.8 µg/mL) | 1 (≈ 0.288 µg/mL) | 100 (≈ 28.8 µg/mL) | 3.2 (≈ 0.923 µg/mL) | 100 µM (≈ 28.8 µg/mL) | 1 (≈ 0.288 µg/mL) | 100 (≈ 28.8 µg/mL) | 
21 | CCc1ccc(C2=NCc3c(Cl)cccc3-n3cccc32)cc1 | 0.32 (≈ 0.103 µg/mL) | 0.32 (≈ 0.103 µg/mL) | 100 (≈ 32.1 µg/mL) | 0.03 (≈ 0.00962 µg/mL) | 100 µM (≈ 32.1 µg/mL) | 0.01 (≈ 0.00321 µg/mL) | 0.03 (≈ 0.00962 µg/mL) | 
22 | CCc1cccc(C2NCc3c(Cl)cccc3-n3cccc32)c1 (centres undefined) | 10 (≈ 3.23 µg/mL) | 10 (≈ 3.23 µg/mL) | 100 (≈ 32.3 µg/mL) | 1 (≈ 0.323 µg/mL) | 100 µM (≈ 32.3 µg/mL) | 0.1 (≈ 0.0323 µg/mL) | 1 (≈ 0.323 µg/mL) | 
23 | Clc1ccc(C2NCc3c(Cl)cccc3-n3cccc32)cc1 (centres undefined) | 100 (≈ 32.9 µg/mL) | 51.6 (≈ 17 µg/mL) | 100 (≈ 32.9 µg/mL) | 0.66 (≈ 0.217 µg/mL) | 100 µM (≈ 32.9 µg/mL) | 0.32 (≈ 0.105 µg/mL) | 0.66 (≈ 0.217 µg/mL) | 
24 | CN(C/C=C/C#CC(C)(C)C)Cc1cccc2ccccc12 [TERBINAFINE] | 0.32 (≈ 0.0933 µg/mL) | 0.32 (≈ 0.0933 µg/mL) | 1 (≈ 0.291 µg/mL) | 0.01 (≈ 0.00291 µg/mL) | 0.32 µM (≈ 0.0933 µg/mL) | 0.003 (≈ 0.000874 µg/mL) | 0.03 (≈ 0.00874 µg/mL) | 
